This is an account of results in patent US20220387383A1 (University of South Africa, priority 2019, published 2022).

pIC50: −log10 of the molar value. “Also recorded” adds a separate entry of the source. Like-named read-outs stand apart in the source and are kept apart here.

For one series, the target named is Mdm2 (Homo sapiens, UniProt Q00987). The conditions noted are these: Warner et al. 2012; cited from earlier work.
The conditions of series [1]: literature, in words, cited from earlier work.
For series [2] the following is noted: literature, in words, cited from earlier work. This is another data set of the same source.
The test system of series [3] is PANC-1 pancreatic cancer cells. Put plainly: MTT assay for cell viability, PANC-1 pancreatic cancer cells. The format is cell-based. Particulars: Homo sapiens; PANC-1, MTT, 48 hours. The method, then: (§1) The A375 human malignant melanoma cells, PANC-1 pancreatic cancer cells and HEK293 human embryonic kidney cells were cultured in media containing 89% DMEM, 10% FBS and 1% penicillin-streptomycin. Once confluent, the cells were washed thrice with 1×PBS and detached from T75 flasks by incubating the cells with 2 mL trypsin-EDTA for 5-10 minutes at 37° C. 2 mL DMEM was added to the cells to stop the reaction of trypsin-EDTA. […] The intensity of this colour is proportional to the state of metabolic activity in the cells and therefore the extent of cell viability. MTT is therefore used to measure the extent to which the drugs are toxic. PANC-1 pancreatic cancer, A375 malignant melanoma and HEK293 human embryonic kidney cell lines were cultured to confluence in CytoOne T75 vented cell culture flasks (USA Scientific). The cells were counted using a haemocytometer and passaged/plated into CytoOne 96 well plates (USA Scientific). […] Absorbance readings were measured at 570 nm using a 96 well plate reader. The percentage of viable cells in treated and untreated cultures was calculated and compared. […] The cell viability data was expressed as the mean±standard deviation (SD) from three independent experiments. The IC50 values were calculated using the non-linear regression test which briefly involves conversion of the ezetimibe concentrations to log values. […]
A general note: Tetrazolium dyes change colour on reduction, which living cells bring about.

The subject of series [4] is HEK293 human embryonic kidney cells. Put plainly: MTT assay for cell viability, HEK293 normal embryonic kidney cells. In kind it is cell-based. Particulars: 0.1-200 μM, 48 hours. On the procedure:
as §1

For series [5] the following is noted: cited from earlier work.
Series [6] concerns A375 human malignant melanoma cells. Put plainly: MTT assay for cell viability, A375 malignant melanoma cells. The conditions noted are these: for pIC50: A375, MTT, 48 hours, nonlinear regression, read-out: IC50, growth inhibition of melanoma cell line. The format is cell-based. The method, then:
The A375 human malignant melanoma cells, PANC-1 pancreatic cancer cells and HEK293 human embryonic kidney cells were cultured in media containing 89% DMEM, 10% FBS and 1% penicillin-streptomycin. Once confluent, the cells were washed thrice with 1×PBS and detached from T75 flasks by incubating the cells with 2 mL trypsin-EDTA for 5-10 minutes at 37° C. 2 mL DMEM was added to the cells to stop the reaction of trypsin-EDTA. […] The intensity of this colour is proportional to the state of metabolic activity in the cells and therefore the extent of cell viability. MTT is therefore used to measure the extent to which the drugs are toxic. PANC-1 pancreatic cancer, A375 malignant melanoma and HEK293 human embryonic kidney cell lines were cultured to confluence in CytoOne T75 vented cell culture flasks (USA Scientific). The cells were counted using a haemocytometer and passaged/plated into CytoOne 96 well plates (USA Scientific). Approximately 5 000 cells per 200 μl were plated. The plates were incubated overnight to allow for attachment. The medium was removed after overnight incubation. […] After incubation for 48 hours, 20 μL of MTT reagent was added and incubated for 4 hours. Approximately 200 μL of the solubilisation reagent was added to each well and incubated overnight. The MTT assay was performed using the cell proliferation kit I (MTT) (Roche, Switzerland) by following the instructions in the manual. Absorbance readings were measured at 570 nm using a 96 well plate reader. The percentage of viable cells in treated and untreated cultures was calculated and compared. All statistical analyses were performed using Prism GraphPad Software (San Diego, Calif. 92108, USA). The cell viability data was expressed as the mean±standard deviation (SD) from three independent experiments. The IC50 values were calculated using the non-linear regression test which briefly involves conversion of the ezetimibe concentrations to log values. The log values were matched with their corresponding cell viability percentages. The one sample T-test and Wilcoxon Signed Rank Test were used to determine the statistical difference between the cell viability percentage in treated cells.

The subject of another series is cholesterol absorption. Particulars: reported experiments with the initial drug lead; cited from earlier work.
The mark [7] stands for this setting: ezetimibe and/or the glucuronide metabolite.

One may read the pIC50 as −log10 of the IC50, conventionally taken in molar units. One may read the inhibition as the relative decrease from the control value, in per cent.

Mdm2, sequence (Q00987 whole entry): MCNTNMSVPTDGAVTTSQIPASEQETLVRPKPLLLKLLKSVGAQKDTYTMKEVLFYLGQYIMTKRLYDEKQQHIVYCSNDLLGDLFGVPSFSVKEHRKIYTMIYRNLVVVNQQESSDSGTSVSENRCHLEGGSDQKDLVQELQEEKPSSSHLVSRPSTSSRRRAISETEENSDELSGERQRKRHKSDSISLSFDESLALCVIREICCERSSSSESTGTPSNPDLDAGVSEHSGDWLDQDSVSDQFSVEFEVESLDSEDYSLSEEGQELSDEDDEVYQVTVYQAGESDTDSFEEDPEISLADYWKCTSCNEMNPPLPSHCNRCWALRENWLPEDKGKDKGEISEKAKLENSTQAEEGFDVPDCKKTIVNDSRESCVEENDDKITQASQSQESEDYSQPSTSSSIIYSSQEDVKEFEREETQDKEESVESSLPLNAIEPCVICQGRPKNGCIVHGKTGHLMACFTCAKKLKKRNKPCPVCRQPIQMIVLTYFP

With `COc1ccc(C2=NC(c3ccc(Cl)cc3)C(c3ccc(Cl)cc3)N2C(=O)N2CCNC(=O)C2)c(OC(C)C)c1` (stereo not shown) [nutlin-3a, 4-(4,5-bis(4-chlorophenyl)-2-(2-isopropoxy-4-methoxyphenyl)-4,5-dihydro-1H-imidazole-1-carbonyl) piperazin-2-one], the “Estimated free energy of binding, kcal/mol (Patch Dock)” value on Mdm2 is −7.7+/−0.6 kcal/mol (Warner et al. 2012). The Bioavailability entry in series [1] is on record as “poor bioavailability”.

Regarding `O=C1[C@H](CC[C@H](O)c2ccc(F)cc2)[C@@H](c2ccc(O)cc2)N1c1ccc(F)cc1` [Ezetimibe], the “Aqueous Solubility” value is listed as “Poor” in series [2] and “highly insoluble” in series [2] (listed as ezetimibe). In addition, the pIC50 in series [3] was 4.15; in series [6] it was 4.51; in series [6] (Homo sapiens, A-375, 48 h), 4.51. In addition, in series [4], the “Toxicity to normal human embryonic kidney cell line” value is reported as “non-toxic; also recorded: does not exhibit toxicity”. Further, the “Fraction metabolised in the intestine to the glucuronide metabolite” value in series [5] (by UGT 1A1, 1A3 and 2B15) is given as “Up to 80%”. For the same molecule, in series [5] (setting [7]), the “Excreted in the faeces” value was 90%. The Excreted in urine in series [5] (setting [7]) was 10%. For the same molecule, the Bioavailability entry in series [1] is reported as “poor bioavailability; also recorded: Almost negligible”; in series [1] (listed as ezetimibe) it was “low bioavailability”. The inhibition at 200 µM in series [6] (Homo sapiens, A-375, A375, highest concentration, 200 μM, read-out: Inhibition of the melanoma cell line) is > 80%. For the same molecule, in series [6] (Homo sapiens, A-375, A375, lowest concentration tested, 1 μM, read-out: Inhibition of the melanoma cell line), the inhibition at 1 µM was ~20%. The “Concentrations toxic to cancer cells” value in series [6] (cancer cells (A375 and PANC-1), MTT) lay in the range of 20 to 80 µM.

Take `COc1cc(/C=C/C(=O)CC(=O)/C=C/c2ccc(O)c(OC)c2)ccc1O` [Curcumin]: the Bioavailability result in series [1] is reported as “Poor”; in series [1] (listed as curcumin) it was “poor bioavailability; also recorded: low bioavailability”.

In the case of `COc1ccc([C@@H]2[C@@H](CCCc3ccccc3)C(=O)N2c2ccc(OC)cc2)cc1` [SCH48461], the “Inhibition of cholesterol absorption” value with cholesterol absorption is 70%.
